Laboratory results from US9339523B2, “Estrogenic extracts of Asparagus conchinchinensis (Lour.) Merr of the Liliaceae family and uses thereof” (BIONOVO, INC., priority 2007, dated 2016).
Each block holds one compound with its values, some of them ahead of it.

Key:
TNF-RE tkLuc = TNF-RE tkLuc reporter, ERα and ERβ not separated (Example 2); format: cell-based, human; settings: for activation of TNF-RE tkLuc: antiestrogens, in contrast to E2
Experimental: Plasmid Construction. […] ERβ mutants were created with QuikChange site-directed mutagenesis kits (Stratagene), by using oligonucleotides containing the mutation. The mutants were sequenced with Sequenase kits (Amersham Pharmacia) to verify the presence of the mutation.
(§1) For experiments, cells were collected, transferred to a cuvette, and then electroporated with a Bio-Rad gene pulser as described previously using 3 μg of reporter plasmid and 1 μg of ERα or ERβ expression vectors. After electroporation, the cells were resuspended in media and plated at 1 ml/dish in 12-well multiplates. […] The concentration of hormone required to produce a half-maximal induction (EC50) or inhibition (IC50) of luciferase activity was calculated with the Prism curve-fitting program (Graph Pad Software, version 2.0b). […] The cells were plated in duplicate at a density of 25,000 cells/35-mm plate in tissue culture medium containing 3% stripped fetal bovine serum. […] After 8 days the cells were counted with a Coulter counter.

ERβ [1] = target: T1, ERβ (Homo sapiens, UniProt Q92731); test: ERE-tk-Luc luciferase assay in U2OS cells with ERβ; format: cell-based; design: expressed in transfected cells; host or cells: U2OS (human osteosarcoma); settings: competition with the extract, FIG. 6
T1 sequence (Q92731 whole entry): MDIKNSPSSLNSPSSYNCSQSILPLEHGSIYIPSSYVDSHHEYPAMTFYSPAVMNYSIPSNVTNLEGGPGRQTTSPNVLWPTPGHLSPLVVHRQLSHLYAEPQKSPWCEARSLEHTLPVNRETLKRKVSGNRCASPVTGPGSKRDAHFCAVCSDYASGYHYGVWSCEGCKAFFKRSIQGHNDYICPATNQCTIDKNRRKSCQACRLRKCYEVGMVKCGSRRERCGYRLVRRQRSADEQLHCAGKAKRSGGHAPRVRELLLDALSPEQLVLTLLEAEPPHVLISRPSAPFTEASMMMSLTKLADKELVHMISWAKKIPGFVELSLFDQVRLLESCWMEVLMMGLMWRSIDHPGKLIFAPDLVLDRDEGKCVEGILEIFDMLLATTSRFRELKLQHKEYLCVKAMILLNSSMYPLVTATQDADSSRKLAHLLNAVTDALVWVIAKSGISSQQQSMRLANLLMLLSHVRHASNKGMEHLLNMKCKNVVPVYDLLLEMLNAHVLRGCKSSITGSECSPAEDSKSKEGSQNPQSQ
Experimental: as §1
(§2) The extracts (a and b) were than decanted and only the soluble material was used.

ERβ [2] = target: T1, ERβ; test: TNF-RE tkLuc repression in U2OS cells with ERβ; format: cell-based; design: expressed in transfected cells; host or cells: U2OS (A10)
Experimental: as §1, §2

[3] = five years of therapy; cited from earlier work
[4] = women at high risk for breast cancer; cited from earlier work

Compound: TNF-α
activation of 3 copies of the TNF-RE (−125 to −82) upstream of the tk promoter (TNF-RE tkLuc; TNF-RE tkLuc): 5-10 fold

Compound: C[C@]12CC[C@@H]3c4ccc(O)cc4C[C@@H](CCCCCCCCC[S+]([O-])CCCC(F)(F)C(F)(F)F)[C@H]3[C@@H]1CC[C@@H]2O (stereo partly shown) [ICI 182, 780]
effect on the repression induced by E2 (TNF-RE tkLuc; TNF-RE tkLuc): abolished the repression induced by E2
activation of TNF-RE tkLuc (TNF-RE tkLuc): 2 fold

effect on the extract's stimulation of the ERE with ERβ (ERβ [1]): is inhibited
Compound: O=C(c1ccc(OCCN2CCCCC2)cc1)c1c(-c2ccc(O)cc2)sc2cc(O)ccc12 [raloxifene]
effect on the repression induced by E2 (TNF-RE tkLuc; TNF-RE tkLuc): abolished the repression induced by E2
activation of TNF-RE tkLuc (TNF-RE tkLuc): 2 fold

repression of TNF-α activation of TNF-RE (ERβ [2]): 100%
Compound: C[C@]12CC[C@@H]3c4ccc(O)cc4CC[C@H]3[C@@H]1CC[C@@H]2O [E2, estradiol]
repression of TNF-α activation of TNF-RE tkLuc (TNF-RE tkLuc; in the presence of ERα and ERβ): 60-80%

Compound: CC/C(=C(\c1ccccc1)c1ccc(OCCN(C)C)cc1)c1ccccc1 [tamoxifen]
reduction of mortality from breast cancer [3]: 22%
reduction of the risk of recurrences [3]: 42%
effect on the repression induced by E2 (TNF-RE tkLuc; TNF-RE tkLuc): abolished the repression induced by E2
activation of TNF-RE tkLuc (TNF-RE tkLuc): 2 fold
reduction of the risk of primary invasive breast cancer [4]: 49%
